# Results as given in ChEMBL document CHEMBL1629701, “Phase 2a randomized controlled trial of short-term activity, safety, and pharmacokinetics of a novel nonnucleoside reverse transcriptase inhibitor, RDEA806, in HIV-1-positive, antiretroviral-naive subjects” (Antimicrob Agents Chemother, 2010).
# Columns and labels:
# [1] = Drug excretion in rhesus monkey urine; type: ADME, Macaca mulatta; settings: read-out: Activity
# [2] = Drug excretion in rat urine; type: ADME, tissue-based; settings: read-out: Activity
# [3] = Renal clearance in rat; type: ADME, organism-based, Kidney; settings: in vivo, read-out: CL_renal
# [4] = Tmax in fasted human at 1000 mg, po every 24 hrs measured on day 8; type: ADME, organism-based; settings: in vivo
# Homo sapiens [5] = assay: Reduction in uric acid level in healthy human serum at 800 mg, po administered every day; type: ADME, organism-based; settings: in vivo
# [6] = AUC (0 to 12 hrs) in human plasma at 300 mg administered as multiple doses, BID; type: ADME, organism-based; parameters: time < 12 hr, dose 300 mg
# [7] = AUC (24 hrs) in fasted human at 400 mg, po every 24 hrs measured on day 8; type: ADME, organism-based; parameters: time < 24 hr, dose 400 mg, route oral; settings: plasma
# [8] = Cmax in human plasma at 300 mg administered as multiple doses, BID; type: ADME, organism-based; parameters: dose 300 mg
# [9] = Tmax in fasted human plasma at 50 to 300 mg; type: ADME, organism-based
# [10] = Plasma protein binding in rat; type: ADME, cell-free; settings: read-out: PPB
# Homo sapiens [11] = assay: Reduction in uric acid level in healthy human serum at 600 mg, po administered every day; type: functional
# [12] = AUC (24 hrs) in fasted human at 1000 mg, po every 24 hrs measured on day 8; type: ADME, organism-based; parameters: dose 1000 mg, time < 24 hr, route oral; settings: plasma
# [13] = system: Human immunodeficiency virus 1; assay: Antiviral activity against HIV1 infected in human assessed as log reduction in HIV-1 RNA level at 800 mg, po administered every day; type: functional
# [14] = target: T1, Solute carrier family 22 member 12 (Homo sapiens, UniProt Q96S37); assay: Inhibition of human URAT-1 assessed as increase in renal uric acid excretion; parameters: species or system Kidney
# T1 sequence (Q96S37 whole entry): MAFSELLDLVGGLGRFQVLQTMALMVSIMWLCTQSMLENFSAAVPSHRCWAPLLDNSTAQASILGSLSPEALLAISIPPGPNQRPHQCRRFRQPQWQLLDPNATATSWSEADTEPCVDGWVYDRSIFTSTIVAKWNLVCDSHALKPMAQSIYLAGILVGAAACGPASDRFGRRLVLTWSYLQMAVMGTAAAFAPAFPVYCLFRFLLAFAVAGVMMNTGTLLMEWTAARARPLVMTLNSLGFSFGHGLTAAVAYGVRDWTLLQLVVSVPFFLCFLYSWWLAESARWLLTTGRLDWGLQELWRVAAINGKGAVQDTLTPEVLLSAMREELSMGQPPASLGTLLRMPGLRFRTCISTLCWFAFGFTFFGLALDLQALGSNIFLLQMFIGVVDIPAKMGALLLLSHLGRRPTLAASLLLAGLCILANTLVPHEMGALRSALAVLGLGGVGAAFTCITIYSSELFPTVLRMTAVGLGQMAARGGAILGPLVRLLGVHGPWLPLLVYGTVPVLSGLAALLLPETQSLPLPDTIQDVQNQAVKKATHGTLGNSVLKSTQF
# [15] = system: Human immunodeficiency virus 1; assay: Antiviral activity against HIV1 infected in fasted human assessed as viral load decay rate as viral log10 RNA copies/ml/day at 600 mg, po BID for 7 days as four modified-release capsules followed by a single dose on day 8 measured per day for 9 days; type: functional
# [16] = system: Human immunodeficiency virus 1; assay: Antiviral activity against HIV1 infected in fasted human assessed as decrease in plasma viral log10 RNA copies/ml at 600 mg, po […] followed by a single dose on day 8 measured on day 9 relative to pooled placebo control; type: functional
# [17] = system: Human immunodeficiency virus 1; assay: Antiviral activity against HIV1 infected in human assessed as change in CD8 expressing T-cell count from baseline at 400 mg, po BID for 7 days as four modified-release capsules followed by a single dose on day 8 measured on day 9 relative to pooled placebo control; type: functional
# [18] = system: Human immunodeficiency virus 1; assay: Antiviral activity against HIV1 infected in fasted human assessed as viral load decay rate as viral log10 RNA copies/ml/day at 400 mg, po BID for 7 days as four modified-release capsules followed by a single dose on day 8 measured on day 9; type: functional
# [19] = Drug concentration at steady state in fasted human plasma at 1000 mg, po every 24 hrs measured on day 8; type: ADME, organism-based; settings: read-out: Drug uptake
# [20] = system: Human immunodeficiency virus 1; assay: Antiviral activity against HIV1 infected in fasted human assessed as decrease in plasma viral log10 RNA copies/ml at 800 mg, po […] followed by a single dose on day 8 measured on day 9 relative to pooled placebo control; type: functional
# [21] = system: Human immunodeficiency virus 1; assay: Antiviral activity against HIV1 infected in fasted human assessed as decrease in log10 HIV RNA copies/ml at 800 mg, po […] followed by a single dose on day 8 measured on day 9 relative to pooled placebo control; type: functional
# [22] = Drug excretion in dog urine; type: ADME, Canis lupus familiaris; settings: read-out: Activity
# [23] = system: Human immunodeficiency virus 1; assay: Antiviral activity against HIV1 infected in human assessed as change in CD8 expressing T-cell count from baseline at 1000 mg, po administered every day as five enteric-coated tablets followed by a single dose on day 8 measured on day 9 relative to pooled placebo control; type: functional
# [24] = system: Human immunodeficiency virus 1; assay: Antiviral activity against HIV1 infected in human assessed as change in CD8 expressing T-cell count from baseline at 600 mg, po BID for 7 days as four modified-release capsules followed by a single dose on day 8 measured on day 9 relative to pooled placebo control; type: functional
# Homo sapiens [25] = species on record: Homo sapiens; assay: Cardiotoxicity in healthy human assessed as changes in electrocardiographic QTc interval; type: toxicity, organism-based; settings: in vivo
# [26] = Drug concentration at steady state in fasted human plasma 600 mg, po every 24 hrs measured on day 8; type: ADME, organism-based; settings: read-out: Drug uptake
# [27] = system: Human immunodeficiency virus 1; assay: Antiviral activity against HIV1 infected in fasted human assessed as decrease in log10 HIV RNA copies/ml at 400 mg, po BID for 7 days as four modified-release capsules followed by a single dose on day 8 measured on day 9 relative to pooled placebo control; type: functional
# [28] = Cmax in fasted human plasma at 600 mg, po every 24 hrs measured on day 8; type: ADME, organism-based; parameters: dose 600 mg, route oral
# [29] = system: Human immunodeficiency virus 1; assay: Antiviral activity against HIV1 infected in fasted human assessed as decrease in plasma viral log10 RNA copies/ml at 1000 mg, po […] followed by a single dose on day 8 measured on day 9 relative to pooled placebo control; type: functional
# [30] = system: Human immunodeficiency virus 1; assay: Antiviral activity against HIV1; type: functional, organism-based
# [31] = system: Human immunodeficiency virus 1; assay: Antiviral activity against HIV1 infected in fed human assessed as viral load decay rate as viral log10 RNA copies/ml/day at 800 mg, po administered every day as four enteric-coated tablets followed by a single dose on day 8 measured on day 9; type: functional
# Homo sapiens [32] = assay: Reduction in uric acid level in healthy human serum at 1000 mg, po administered every day; type: ADME, organism-based; settings: in vivo
smiles,measurement,setting,value
O=C(CSc1nnc(Br)n1-c1ccc(C2CC2)c2ccccc12)Nc1ccc(C(=O)O)cc1Cl,dose excreted,[1],< 0.06%
same,dose excreted,[2],< 0.06%
same,CL renal,[3],≤ 1 mL/min
same,Tmax,[4],3 h
same,Activity,Homo sapiens [5],58 µmol/L
same,AUC at 12 h,[6],3160 ng·h/mL
same,AUC at 24 h,[7],12400 ng·h/mL
same,Cmax,[8],667 ng/mL
same,Tmax,[9],1.25 h
same,fraction unbound,[10],< 0.01
same,Activity,Homo sapiens [11],81 µmol/L
same,AUC at 24 h,[12],17400 ng·h/mL
same,Activity,[13],0.5 mL⁻¹
same,Activity,[14],Active
same,Activity,[15],-0.18 mL⁻¹
same,Activity,[16],-1.5241 mL⁻¹
same,Activity,[17],-39.17 /mm3
same,Activity,[18],-0.25 mL⁻¹
same,concentration at 24 h,[19],515 ng/mL
same,Activity,[20],-1.7426 mL⁻¹
same,Activity,[21],-1.619 mL⁻¹
same,dose excreted,[22],< 0.06%
same,Activity,[23],71.04 /mm3
same,Activity,[24],64.54 /mm3
same,Activity,Homo sapiens [25],Non-toxic
same,concentration at 24 h,[26],276 ng/mL
same,Activity,[27],-1.948 mL⁻¹
same,Cmax,[28],2420 ng/mL
same,Activity,[29],-1.8189 mL⁻¹
same,EC50,[30],1.7 ng/mL
same,Activity,[31],-0.2 mL⁻¹
same,Activity,Homo sapiens [32],88 µmol/L
